Data as given in article PMC8000041, “New Insights into the Metabolism of the Flavanones Eriocitrin and Hesperidin: A Comparative Human Pharmacokinetic Study” (Antioxidants, 2021).

Experiment: Urinary excretion of flavanone-derived metabolites after single intake of lemon or orange extract (UPLC-ESI-QTOF-MS)
Format: in vivo, human
Settings: lemon extract (3.1 g, 260 mg eriocitrin), urine fraction 0-4 h, mean ± SD
Excerpt: Secondary endpoints involved the evaluation of post-prandial changes in several biomarkers dealing with metabolism, inflammation, and oxidative stress after a high-fat-high-sugars meal. The design was a randomized pharmacokinetic, double-blind, crossover, single-dose trial consisted of 2 test-phases. The volunteers were randomly allocated into two groups using a computerized random number list. Each group consumed one of the citrus extracts by following a test-phase that lasted for 1 day for blood sampling and urine collection, a 2-week washout period between each test phase, and crossover before consuming the other extract. The volunteers were instructed to avoid the consumption of flavanone-containing products, from a list provided by the researchers, for 1 week before the study and during the wash-out phase (citrus fruit juices, tomatoes, tomato-based sauces (like ‘ketchup’), peppers, almonds, etc.). […] The 3 capsules provided a total of 1.95 g orange extract, containing 260 mg hesperidin, and 3.1 g lemon extract, containing 260 mg eriocitrin. […] Untreated urine samples were aliquoted and frozen at −80 °C for up to 4 weeks until analyses, avoiding freeze-thaw cycles to avoid metabolites’ deconjugation. Moreover, three measurements of blood pressure and heart rate were taken before each time-point of blood withdrawal. […] A previously validated method for analyzing phenolic metabolites in biological samples, including flavanone-derived metabolites, was used. […] After centrifugation at 14,000× g for 10 min at 4 °C, the supernatant was evaporated in a speed vacuum concentrator. Finally, samples were re-suspended in 100 µL of methanol, filtered through a 0.22 µm cellulose filters before analysis by UPLC- ESI-QTOF-MS. […] A targeted screening strategy was applied to identify metabolites that could be present after consuming the citrus extracts. Twenty-eight possible compounds were browsed in all the samples. The list of compounds included the polyphenols present in the extracts, with particular focus on the flavanone rutinosides hesperidin and eriocitrin, their respective aglycones hesperetin, and eriodictyol, as well as their derived phase-II conjugates (glucuronides, sulfates, sulfoglucuronides, etc.). The exact mass of each proposed compound was extracted using an extraction window of 0.01 m/z. The metabolites hesperetin 7-O-glucuronide, hesperetin 3′-O-glucuronide, hesperetin 3-O-sulfate, naringenin 4′-O-glucuronide, and naringenin 7′-O-glucuronide were quantified with their corresponding standards. […] The parent phenolic compounds were quantified with their corresponding standards. In the case of some relevant conjugated metabolites, which standards were not available (eriodictyol and homoeriodictyol conjugates), their quantification was achieved by using relative response factors (RRFs) as previously described. Briefly, RRFs are useful to check the different responses of metabolites in the mass spectrometer vs. their UV signal. While the ionization response of free vs. conjugated forms is usually very different, their UV signal response is quite similar. To this purpose, we injected in a HPLC-DAD-ESI-Q (MS) the plasma samples (n = 5) with the highest concentrations of those conjugated metabolites. Concentrations were calculated by integrating the area from their corresponding UV peaks and compared with the UV peak area of a known concentration of their corresponding available parent compounds (eriodictyol and homoeriodictyol). The concentrations calculated were used to compare the MS response for each conjugated-aglycone pair.

| Structure (SMILES) | Urinary excretion F1 [µg/mg creatinine] |
| --- | --- |
| O=C1CC(c2ccc(OC3OC(C(=O)O)C(O)C(O)C3O)cc2)Oc2cc(O)cc(O)c21 (stereo not shown) [M5, Naringenin 4′-O-glucuronide] | 0.8 ± 0.5 |

Same assay, conditions: lemon extract, sum of fractions F1-F4 (24 h), mean ± SD

| Structure (SMILES) | Urinary excretion Total F [µg/mg creatinine] |
| --- | --- |
| O=C1CC(c2ccc(OC3OC(C(=O)O)C(O)C(O)C3O)cc2)Oc2cc(O)cc(O)c21 (stereo not shown) [M5, Naringenin 4′-O-glucuronide] | 4.2 ± 5.0 |

Same assay, conditions: lemon extract, urine fraction 4-8 h, mean ± SD

| Structure (SMILES) | Urinary excretion F2 [µg/mg creatinine] |
| --- | --- |
| O=C1CC(c2ccc(OC3OC(C(=O)O)C(O)C(O)C3O)cc2)Oc2cc(O)cc(O)c21 (stereo not shown) [M5, Naringenin 4′-O-glucuronide] | 1.7 ± 2.7 |

Same assay, conditions: lemon extract, urine fraction 8-10 h, mean ± SD

| Structure (SMILES) | Urinary excretion F3 [µg/mg creatinine] |
| --- | --- |
| O=C1CC(c2ccc(OC3OC(C(=O)O)C(O)C(O)C3O)cc2)Oc2cc(O)cc(O)c21 (stereo not shown) [M5, Naringenin 4′-O-glucuronide] | 1.3 ± 1.5 |

Same assay, conditions: lemon extract, urine fraction 10-24 h, mean ± SD

| Structure (SMILES) | Urinary excretion F4 [µg/mg creatinine] |
| --- | --- |
| O=C1CC(c2ccc(OC3OC(C(=O)O)C(O)C(O)C3O)cc2)Oc2cc(O)cc(O)c21 (stereo not shown) [M5, Naringenin 4′-O-glucuronide] | 0.4 ± 0.3 |

Same assay, conditions: orange extract (1.95 g, 260 mg hesperidin), urine fraction 0-4 h, mean ± SD

| Structure (SMILES) | Urinary excretion F1 [µg/mg creatinine] |
| --- | --- |
| O=C1CC(c2ccc(OC3OC(C(=O)O)C(O)C(O)C3O)cc2)Oc2cc(O)cc(O)c21 (stereo not shown) [M5, Naringenin 4′-O-glucuronide] | 0.1 ± 0.1 |

Same assay, conditions: orange extract, sum of fractions F1-F4 (24 h), mean ± SD

| Structure (SMILES) | Urinary excretion Total F [µg/mg creatinine] |
| --- | --- |
| O=C1CC(c2ccc(OC3OC(C(=O)O)C(O)C(O)C3O)cc2)Oc2cc(O)cc(O)c21 (stereo not shown) [M5, Naringenin 4′-O-glucuronide] | 1.0 ± 1.5 |

Same assay, conditions: orange extract, urine fraction 4-8 h, mean ± SD

| Structure (SMILES) | Urinary excretion F2 [µg/mg creatinine] |
| --- | --- |
| O=C1CC(c2ccc(OC3OC(C(=O)O)C(O)C(O)C3O)cc2)Oc2cc(O)cc(O)c21 (stereo not shown) [M5, Naringenin 4′-O-glucuronide] | 0.3 ± 0.5 |

Same assay, conditions: orange extract, urine fraction 8-10 h, mean ± SD

| Structure (SMILES) | Urinary excretion F3 [µg/mg creatinine] |
| --- | --- |
| O=C1CC(c2ccc(OC3OC(C(=O)O)C(O)C(O)C3O)cc2)Oc2cc(O)cc(O)c21 (stereo not shown) [M5, Naringenin 4′-O-glucuronide] | 0.3 ± 0.4 |

Same assay, conditions: orange extract, urine fraction 10-24 h, mean ± SD

| Structure (SMILES) | Urinary excretion F4 [µg/mg creatinine] |
| --- | --- |
| O=C1CC(c2ccc(OC3OC(C(=O)O)C(O)C(O)C3O)cc2)Oc2cc(O)cc(O)c21 (stereo not shown) [M5, Naringenin 4′-O-glucuronide] | 0.3 ± 0.5 |

Same assay, conditions: urine, after consuming lemon extract, n = 16 volunteers

| Structure (SMILES) | Occurrence Urine LE (number of volunteers in whom the metabolite was detected) |
| --- | --- |
| O=C1CC(c2ccc(OC3OC(C(=O)O)C(O)C(O)C3O)cc2)Oc2cc(O)cc(O)c21 (stereo not shown) [M5, Naringenin 4′-O-glucuronide] | 16 |

Same assay, conditions: urine, after consuming orange extract, n = 16 volunteers

| Structure (SMILES) | Occurrence Urine OE (number of volunteers in whom the metabolite was detected) |
| --- | --- |
| O=C1CC(c2ccc(OC3OC(C(=O)O)C(O)C(O)C3O)cc2)Oc2cc(O)cc(O)c21 (stereo not shown) [M5, Naringenin 4′-O-glucuronide] | 16 |

Experiment: Plasma metabolites and pharmacokinetics after single intake of lemon or orange extract (UPLC-ESI-QTOF-MS, non-compartmental analysis)
Format: in vivo, human
Settings: after consuming lemon extract, n = 16 volunteers
Excerpt: Secondary endpoints involved the evaluation of post-prandial changes in several biomarkers dealing with metabolism, inflammation, and oxidative stress after a high-fat-high-sugars meal. The design was a randomized pharmacokinetic, double-blind, crossover, single-dose trial consisted of 2 test-phases. The volunteers were randomly allocated into two groups using a computerized random number list. Each group consumed one of the citrus extracts by following a test-phase that lasted for 1 day for blood sampling and urine collection, a 2-week washout period between each test phase, and crossover before consuming the other extract. The volunteers were instructed to avoid the consumption of flavanone-containing products, from a list provided by the researchers, for 1 week before the study and during the wash-out phase (citrus fruit juices, tomatoes, tomato-based sauces (like ‘ketchup’), peppers, almonds, etc.). […] The 3 capsules provided a total of 1.95 g orange extract, containing 260 mg hesperidin, and 3.1 g lemon extract, containing 260 mg eriocitrin. […] Plasma samples were obtained by centrifugation of peripheral venous blood at 14,000× g for 15 min at 4 °C and immediately frozen at −80 °C. Glucose, total cholesterol, HDL-cholesterol, LDL-cholesterol, triglycerides, insulin, homeostatic model assessment insulin resistance (HOMA-IR), gamma-glutamyl transferase (GGT), and alanine aminotransferase (ALT) were determined as previously reported. […] A previously validated method for analyzing phenolic metabolites in biological samples, including flavanone-derived metabolites, was used. […] After centrifugation at 14,000× g for 10 min at 4 °C, the supernatant was evaporated in a speed vacuum concentrator. Finally, samples were re-suspended in 100 µL of methanol, filtered through a 0.22 µm cellulose filters before analysis by UPLC- ESI-QTOF-MS. A targeted screening strategy was applied to identify metabolites that could be present after consuming the citrus extracts. Twenty-eight possible compounds were browsed in all the samples. The list of compounds included the polyphenols present in the extracts, with particular focus on the flavanone rutinosides hesperidin and eriocitrin, their respective aglycones hesperetin, and eriodictyol, as well as their derived phase-II conjugates (glucuronides, sulfates, sulfoglucuronides, etc.). The exact mass of each proposed compound was extracted using an extraction window of 0.01 m/z. The metabolites hesperetin 7-O-glucuronide, hesperetin 3′-O-glucuronide, hesperetin 3-O-sulfate, naringenin 4′-O-glucuronide, and naringenin 7′-O-glucuronide were quantified with their corresponding standards. […] The parent phenolic compounds were quantified with their corresponding standards. In the case of some relevant conjugated metabolites, which standards were not available (eriodictyol and homoeriodictyol conjugates), their quantification was achieved by using relative response factors (RRFs) as previously described. Briefly, RRFs are useful to check the different responses of metabolites in the mass spectrometer vs. their UV signal. While the ionization response of free vs. conjugated forms is usually very different, their UV signal response is quite similar. To this purpose, we injected in a HPLC-DAD-ESI-Q (MS) the plasma samples (n = 5) with the highest concentrations of those conjugated metabolites. Concentrations were calculated by integrating the area from their corresponding UV peaks and compared with the UV peak area of a known concentration of their corresponding available parent compounds (eriodictyol and homoeriodictyol). The concentrations calculated were used to compare the MS response for each conjugated-aglycone pair. Statistical analyses were carried out using the SPSS Software, version 23.0 (SPSS Inc., Chicago, IL, USA). Data are expressed as mean ± SD. The empirical distribution of data with the normality assumption was tested with the Shapiro-Wilk test. […]

| Structure (SMILES) | Occurrence Plasma LE (number of volunteers in whom the metabolite was detected) |
| --- | --- |
| O=C1CC(c2ccc(OC3OC(C(=O)O)C(O)C(O)C3O)cc2)Oc2cc(O)cc(O)c21 (stereo not shown) [M5, Naringenin 4′-O-glucuronide] | 16 |

Same assay, conditions: after consuming orange extract, n = 16 volunteers

| Structure (SMILES) | Occurrence Plasma OE (number of volunteers in whom the metabolite was detected) |
| --- | --- |
| O=C1CC(c2ccc(OC3OC(C(=O)O)C(O)C(O)C3O)cc2)Oc2cc(O)cc(O)c21 (stereo not shown) [M5, Naringenin 4′-O-glucuronide] | 14 |

Same assay, conditions: after lemon extract, mean ± SD

| Structure (SMILES) | Tmax [h] |
| --- | --- |
| O=C1CC(c2ccc(OC3OC(C(=O)O)C(O)C(O)C3O)cc2)Oc2cc(O)cc(O)c21 (stereo not shown) [M5, Naringenin 4′-O-glucuronide] | 5.7 ± 2.3 |

Same assay, conditions: after orange (hesperidin) extract, mean ± SD

| Structure (SMILES) | Tmax [h] |
| --- | --- |
| O=C1CC(c2ccc(OC3OC(C(=O)O)C(O)C(O)C3O)cc2)Oc2cc(O)cc(O)c21 (stereo not shown) [M5, Naringenin 4′-O-glucuronide] | 7.7 ± 2.0 |

Same assay, conditions: human, oral, 1.95 g, after orange (hesperidin) extract, mean ± SD

| Structure (SMILES) | Cmax [nM] |
| --- | --- |
| O=C1CC(c2ccc(OC3OC(C(=O)O)C(O)C(O)C3O)cc2)Oc2cc(O)cc(O)c21 (stereo not shown) [M5, Naringenin 4′-O-glucuronide] | 7.3 ± 5.9 |

Same assay, conditions: human, oral, 1.95 g, after orange (hesperidin) extract, mean ± SD, read-out: AUC0-t

| Structure (SMILES) | AUC(0-t) [µM·h] |
| --- | --- |
| O=C1CC(c2ccc(OC3OC(C(=O)O)C(O)C(O)C3O)cc2)Oc2cc(O)cc(O)c21 (stereo not shown) [M5, Naringenin 4′-O-glucuronide] | 0.0267 ± 0.0277 |

Same assay, conditions: human, oral, 1.95 g, after orange (hesperidin) extract, mean ± SD, read-out: Tmax

| Structure (SMILES) | Tmax [h] |
| --- | --- |
| O=C1CC(c2ccc(OC3OC(C(=O)O)C(O)C(O)C3O)cc2)Oc2cc(O)cc(O)c21 (stereo not shown) [M5, Naringenin 4′-O-glucuronide] | 7.5 |

Same assay, conditions: human, oral, 3.1 g, after lemon extract, mean ± SD

| Structure (SMILES) | Cmax [nM] |
| --- | --- |
| O=C1CC(c2ccc(OC3OC(C(=O)O)C(O)C(O)C3O)cc2)Oc2cc(O)cc(O)c21 (stereo not shown) [M5, Naringenin 4′-O-glucuronide] | 35.8 ± 25.9 |

Same assay, conditions: human, oral, 3.1 g, after lemon extract, mean ± SD, read-out: AUC0-t

| Structure (SMILES) | AUC(0-t) [µM·h] |
| --- | --- |
| O=C1CC(c2ccc(OC3OC(C(=O)O)C(O)C(O)C3O)cc2)Oc2cc(O)cc(O)c21 (stereo not shown) [M5, Naringenin 4′-O-glucuronide] | 0.129 ± 0.124 |

Same assay, conditions: human, oral, 3.1 g, after lemon extract, mean ± SD, read-out: Tmax

| Structure (SMILES) | Tmax [h] |
| --- | --- |
| O=C1CC(c2ccc(OC3OC(C(=O)O)C(O)C(O)C3O)cc2)Oc2cc(O)cc(O)c21 (stereo not shown) [M5, Naringenin 4′-O-glucuronide] | 5.5 |
